The values that follow come from patent US8815872B2, “Macrocyclics pyrimidines as aurora kinase inhibitors” (Merck Patent GmbH, priority 2008, dated 2014).

The target of one assay is T1, Aurora A (Homo sapiens, UniProt O14965).
T1 construct: N-terminal GST fusion with full length Aurora A (1-403 amino acids); purchased Carna Biosciences 05-101
T1 sequence (O14965 1-403): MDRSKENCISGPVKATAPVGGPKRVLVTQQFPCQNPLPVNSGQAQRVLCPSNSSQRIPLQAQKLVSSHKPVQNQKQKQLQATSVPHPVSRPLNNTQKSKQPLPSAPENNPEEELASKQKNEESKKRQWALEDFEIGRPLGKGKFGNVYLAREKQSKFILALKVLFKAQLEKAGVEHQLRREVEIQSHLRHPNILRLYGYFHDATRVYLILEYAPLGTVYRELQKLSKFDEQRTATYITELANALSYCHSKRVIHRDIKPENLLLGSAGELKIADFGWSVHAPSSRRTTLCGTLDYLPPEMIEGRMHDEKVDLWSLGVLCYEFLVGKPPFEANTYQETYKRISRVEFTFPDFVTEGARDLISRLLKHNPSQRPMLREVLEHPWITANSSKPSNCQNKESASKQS
Nature of the assay: Aurora A enzyme assay (Caliper LC3000 mobility shift). Format: biochemical. On the procedure: (§1) The Aurora and other kinase assays described here were performed on two Caliper Life Sciences systems, the LC3000 and the Desktop Profiler. These provide data on enzyme activity via measurement of the relative amounts of phosphorylated or unphosphorylated fluorescently labelled substrate peptide at the end of an enzymatic reaction. These different states of peptide are resolved by applying a potential difference across the sample. The presence of a charged phosphate group on the product (as opposed to the substrate) causes a different peptide mobility between the two peptides. This is visualized by excitation of a fluorescent label on the substrate and product peptides and represented as peaks within the analysis software.
For example, in order to measure inhibitor activity of Aurora A inhibitors in the Caliper Life Sciences LC3000, a TTP Mosquito liquid handling instrument was used to place […] of an appropriate concentration of inhibitor in 100% DMSO (for a dose response curve calculation) into each well of a 384-well plate. To this reaction components were added to a final volume of 25 μl: • 0.067 ng/μl GST-Aurora A (Carna Biosciences 05-101. N-terminal GST fusion with full length Aurora A (1-403 amino acids), accession number NP_940835.1). • 15 μM ATP (Fluka, 02055) • 1 mM DTT (Sigma, D0632) • 1 mM MgC12 (Sigma, M1028) • 1 μM substrate peptide (sequence FITC-LRRASLG-(CONH2), synthesized by Tufts Peptide Synthesis service. • 100 mM HEPES pH 7.5 (Calbiochem, 391338) • 0.015% Brij-35 (Sigma, B4184)
The reaction was incubated for 90 min at 25° C., and then stopped by the addition of 70 μl of Stop buffer (100 mM HEPES pH 7.5, 0.015% Brij-35, 10 mM EDTA (Sigma, E7889)).
The plate was read on a Caliper LC 3000 in an Off-Chip mobility shift assay format, using the following parameters for a 12-sipper chip: screening pressure −1.8 psi, upstream voltage −2700, downstream voltage −1000. These conditions cause unphosphorylated substrate and phosphorylated product peptide to resolve as separate peaks allowing direct measurement of percentage of conversion of substrate to product. The percent conversion was plotted against concentration of inhibitor to produce a sigmoidal dose response curve, from which an IC50 was calculated using XLFit for Microsoft Excel.

The target of another assay is Aurora B (Homo sapiens, UniProt Q96GD4). The assay can be described thus: Aurora B enzyme assay (Caliper). The assay is classed as biochemical. On the procedure:
as §1

A further assay deals with A549. The assay can be described thus: Cellular activity A549. Format: cell-based. The settings on record: Homo sapiens. On the procedure:
(§2) The susceptibility of a particular cell to treatment with the compounds according to the invention was determined by in vitro tests. Typically, a culture of the cell was combined with a compound according to the invention at various concentrations for a period of time that was sufficient to allow the active agents to induce cell death or to inhibit migration, usually between about one hour and one week. In vitro testing was carried out using cultivated cells from a biopsy sample. The viable cells remaining after the treatment then were counted.

The next assay deals with MiaPaca2. Nature of the assay: Cellular activity MiaPaca2. The assay is classed as cell-based. As to conditions: for IC50: Homo sapiens, MIA PaCa-2. On the procedure:
as §2

Sequence of Aurora B (Q96GD4 whole entry): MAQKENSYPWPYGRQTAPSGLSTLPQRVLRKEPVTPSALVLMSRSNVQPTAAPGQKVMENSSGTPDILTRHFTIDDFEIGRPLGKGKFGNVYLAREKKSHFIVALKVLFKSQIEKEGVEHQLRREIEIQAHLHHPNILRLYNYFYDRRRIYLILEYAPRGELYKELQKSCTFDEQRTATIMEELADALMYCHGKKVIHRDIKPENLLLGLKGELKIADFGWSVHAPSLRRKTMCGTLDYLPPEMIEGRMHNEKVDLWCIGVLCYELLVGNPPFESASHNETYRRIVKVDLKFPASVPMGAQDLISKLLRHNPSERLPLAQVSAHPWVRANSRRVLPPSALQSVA

Take `NC(=O)[C@H]1[C@H]2C[C@H]3[C@H]1Nc1nc(ncc1F)Nc1cccc(c1)[C@H](OCCCN1CCOCC1)CS[C@@H]3C2`: the figures for the half-maximal inhibitory concentration (IC50) at Aurora A, on Aurora B and with A549 were 101 to 1000 nM, 101 to 1000 nM and 1000 to 6250 nM, respectively. The “Cellular Activity MiaPaca2 IC50 (nM)” value in the assay with MiaPaca2 (MiaPaca2) is listed as “+++=”.

As for `Nc1ccc(/C=C/NC(=O)[C@H]2[C@H]3C[C@H]4[C@H]2Nc2nc(ncc2F)Nc2cccc(c2)C(=O)CS[C@@H]4C3)cc1`, the concentration for half-maximal inhibition (IC50) (in general, the concentration at which inhibition is half-maximal) was 101 to 1000 nM at Aurora A, 101 to 1000 nM against Aurora B, more than 6250 nM with A549 and more than 6250 nM in the assay with MiaPaca2.

For `NC(=O)[C@H]1[C@H]2C[C@H]3[C@H]1Nc1nc(ncc1F)Nc1cccc(c1)CCN[C@@H]3C2`, the half-inhibitory concentration (IC50) at Aurora A was in the range of 101 to 1000 nM; at Aurora B it was 1 to 100 nM; in the assay on A549, 1000 to 6250 nM; in the assay on MiaPaca2, 1000 to 6250 nM.

As for `NC(=O)[C@H]1[C@H]2C[C@H]3[C@H]1Nc1nc(ncc1F)Nc1cccc(c1)CCS[C@@H]3C2` [drawing 234], the IC50 at Aurora A was 1 to 100 nM; at Aurora B it was 1 to 100 nM; with A549 it was 1000 to 6250 nM; in the assay with MiaPaca2, 1000 to 6250 nM.

Regarding `NC(=O)[C@H]1[C@@H]2CC3NNC(=O)Cc4cccc(c4)Nc4ncc(F)c(n4)N[C@@H]1[C@@H]3C2` (stereo partly drawn), the IC50 on Aurora A was 1 to 100 nM; against Aurora B, 1 to 100 nM; with A549 it was more than 6250 nM; in the assay with MiaPaca2, more than 6250 nM.

With `CN1CCN(c2ccc3cc2OCCN[C@@H]2C[C@@H]4C[C@H]2[C@@H](Nc2nc(ncc2F)N3)[C@H]4C(N)=O)CC1`, the half-inhibitory concentration (IC50) on Aurora A was 101 to 1000 nM; against Aurora B, 1 to 100 nM; in the assay with A549, 101 to 1000 nM; with MiaPaca2 it was 101 to 1000 nM.

Regarding `NC(=O)[C@H]1[C@H]2C[C@H]3[C@H]1Nc1nc(ncc1F)Nc1cccc(c1)CSS[C@@H]3C2` [drawing 213], the IC50 on Aurora A was in the range of 1 to 100 nM; on Aurora B, 1 to 100 nM; with A549, 1000 to 6250 nM; in the assay on MiaPaca2, 1000 to 6250 nM.

As to `NC(=O)[C@H]1[C@H]2C[C@H]3[C@H]1Nc1nc(ncc1F)Nc1cccc(c1)CCC(=O)N[C@@H]3C2`, the IC50 at Aurora A lay in the range of 101 to 1000 nM; on Aurora B it was 101 to 1000 nM; with A549, 1000 to 6250 nM; in the assay with MiaPaca2, 1000 to 6250 nM.

For `NC(=O)[C@H]1[C@H]2C[C@H]3[C@H]1Nc1nc(ncc1F)Nc1cccc(c1)C(O)CN[C@@H]3C2` (stereo partly drawn), the 50% inhibitory concentration (IC50) at Aurora A lay in the range of 101 to 1000 nM; against Aurora B it was 1 to 100 nM; with A549, 1000 to 6250 nM; in the assay on MiaPaca2, 1000 to 6250 nM.

For `NC(=O)[C@H]1[C@H]2C[C@H]3[C@H]1Nc1nc(ncc1F)Nc1cccc(c1)OCCCS[C@@H]3C2`, the concentration for half-maximal inhibition (IC50) lay within 1 to 100 nM at Aurora A, 1 to 100 nM at Aurora B, 1000 to 6250 nM in the assay on A549 and 1000 to 6250 nM in the assay with MiaPaca2.

As for `NC(=O)[C@H]1[C@H]2C[C@H]3[C@H]1Nc1nc(ncc1F)Nc1cccc(c1)CC[S+]([O-])[C@@H]3C2` (stereo partly drawn), the IC50 was in the range of 1 to 100 nM on Aurora A, 1 to 100 nM against Aurora B, 1000 to 6250 nM in the assay with A549 and 1000 to 6250 nM with MiaPaca2.

As for `NC(=O)[C@H]1[C@H]2C[C@H]3[C@H]1Nc1nc(ncc1F)Nc1ccc4c(c1)CN(CC4)C(=O)CS[C@@H]3C2`, the half-inhibitory concentration (IC50) at Aurora A is 1 to 100 nM; at Aurora B, 1 to 100 nM; with A549 it was 1000 to 6250 nM; in the assay with MiaPaca2, 1000 to 6250 nM.
